Measurements taken from patent US20130287688A1, “NOVEL COMPOSITIONS AND USES OF ANTI-HYPERTENSION AGENTS FOR CANCER THERAPY” (XTUIT PHARMACEUTICALS, INC., priority 2010, published 2013).

Assays:
AK4.4 tumors = test: Solid stress (tumor opening technique); design: species or system mice; conditions: mouse, in vivo
HSTS26T tumors [1] = test: Intratumoral spread of i.t. injected oncolytic HSV (GFP); type: in vivo, mice; conditions: 24 hrs after i.t. injection of HSV expressing GFP
Description: (§1) Based on the previous studies on the tumor interstitial matrix (Pluen A, et al. (2001) Proc Natl Acad Sci USA 98:4628-4633 and Brown E, et al. (2003) Nat Med 9:796-800), the inventors then sought to determine if a decrease in collagen content by Losartan can improve the intratumoral distribution of nanoparticles. The inventors therefore measured the intratumoral distribution of fluorescent polystyrene nanoparticles (100 nm diameter) in three different tumor types—HSTS26T, Mu89, and L3.6 pl—after an i.t. or i.v. injection. In mice injected i.t. with nanoparticles, losartan improved nanoparticle accumulation and penetration in the tumor center (FIG. 8A; HSTS26T p<0.001, Mu89 p<0.001). Conversely, there was little or no nanoparticle accumulation in the center of control tumors. Most of the injected nanoparticles in control tumors were found in the tumor margin and around the needle insertion point (FIG. 8A). The inventors also determined the effects of losartan on the intratumoral distribution of oncolytic HSV.
(§2) Nanoparticles and oncolytic HSV were infused with a syringe pump (Harvard Apparatus Standard Pump 22, Holliston, Mass.) at a flow rate of 4 μl/min. The inventors injected 10 μl of HSV (2.5×10^5 t.u.) expressing the green fluorescent protein (GFP), or 10 μl of fluorescent nanoparticles (diameter of […]; concentration of 1×10^13 nanoparticles/ml). […]

Mu89 tumors [2] = test: as above; type: in vivo, mice; conditions: 24 hrs after i.t. injection of HSV expressing GFP
Description: as §1, §2

[3] = Mean arterial blood pressure (MABP) in mice
Procedure: In the following Examples, 20 mg/kg/day dose was used (but it by no means limits the use of other doses in the methods described herein).

[4] = system: FVB MMTV PyVT spontaneous mammary carcinoma; test: Collagen I immunostaining of tumor sections; type: in vivo, mice; conditions: 20 mg/kg/day, two weeks (FIG. 5B)
Procedure: Human soft tissue sarcoma (HSTS26T) and human melanoma (Mu89) tumors were grown subcutaneously in the legs and dorsal skin fold chamber of severe combined immunodeficient (SCID) mice (Leunig M, et al. (1992) Cancer Res 52:6553-6560). Human pancreatic adenocarcinoma cells (L3.6PL) were grown orthotopically in the pancreas of SCID mice. L3.6PL tumors were induced with a sub-capsular injection of one million cells in the tail of the pancreas. Tumor sizes were monitored in spontaneous FVB/N-Tg (MMTV-PyVT) 634MU1/J mice and tumors selected for treatment when they reached a size of 4 to 6 mm in diameter (Guy C T et al. (1992) Mol Cell Biol 12:954-961).
Cozaar (losartan potassium) tablets were ground using a mortar and pestle. The powder was then dissolved in water to obtain a concentration of 2.5 mg/ml. […]
Frozen sections were cut into 10 μm sections for immunohistochemistry and imaging. Collagen I was detected using the LF-67 antibody (1:100 dilution) with a previously described protocol (Znati C A, et al. (2003) Clin Cancer Res 9:5508-5513). TSP-1 was detected with a goat anti-human antibody (1:50 dilution), which cross-reacts with mice (sc-12312, Santa Cruz Biotechnology Inc., Santa Cruz, Calif.). […] The collagen and TSP-1 content was determined by measuring the number of pixels above a threshold value that was set based on the average intensity value of pixels from all slides under analysis. […]

HSTS26T tumors [5] = test: Necrosis 21 days after HSV injection; type: in vivo, mice; conditions: losartan prior to HSV injection
Description: (§3) Hematoxylin staining of intact tumor areas, necrosis, and HSV immunostaining is shown. Necrotic regions are indicated by black arrows. Even though there was no detectable difference in necrotic area between HSTS26T and MU89, necrosis is confined to specific regions in MU89 while there is necrotic tissue (bounded by HSV immunostaining) throughout HSTS26T tumors. Scale bar=2 mm.
(§4) To determine the relationship between virus infection, necrosis and collagen structure 21 days after the HSV injection, consecutive paraffin sections were stained with either a polyclonal HSV-1 antibody (DAKO, Glostrup Denmark) or a collagen I antibody (LF-67). For collagen I staining in paraffin sections, slides were treated with 3% hydrogen peroxide prior to antigen retrieval with Target Retrieval Solution, pH 9 (DAKO, Carpinteria, Calif.). The slides were then treated with 0.05% trypsin before the primary collagen I antibody was applied at a dilution of 1:500. Sections stained with collagen I or HSV were imaged with a light microscope.

Mu89 tumors [6] = test: Necrosis 21 days after HSV injection; type: in vivo, mice; conditions: losartan prior to HSV injection
Description: as §3, §4

[7] = system: L3.6PL orthotopic pancreatic tumors; test: DOXIL treatment and tumor growth delay; type: in vivo, SCID mice
Description: One week after the DOXIL injection, the tumors were resected and measured.

HSTS26T tumors [8] = test: In vivo proliferation (Ki67 staining); design: species or system mice; conditions: after losartan treatment
Description: (§5) Tumors were resected and stained for Ki67 to assess proliferation rates. […] There was however a significant difference in proliferation between the two tumor types, the number of Ki67 positive cells was 3 fold higher in HSTS26T tumors.
(§6) Ki67 staining was done on paraffin sections 21 days after HSV injection. Slides were microwave processed with Target Retrieval Solution (DAKO, Carpinteria, Calif.) prior to primary antibody detection. The entire tumor section was imaged at 2× magnification and reconstituted as a mosaic. Twenty regions were randomly selected in each tumor. The fraction of Ki67 positive cells in each region was determined by manual count.

Mu89 tumors [9] = test: In vivo proliferation (Ki67 staining); design: species or system mice; conditions: after losartan treatment
Description: as §5, §6

SMILES: CCCCc1nc(Cl)c(CO)n1Cc1ccc(-c2ccccc2-c2nn[nH]n2)cc1 [losartan]
- solid stress (AK4.4 tumors): reduces solid stress
- virus spread (HSTS26T tumors [1]): significantly increased
- virus spread (Mu89 tumors [2]): significantly increased
- reduction in mean arterial blood pressure (MABP) ([3]; 20 mg/kg/day, after 2 weeks): 10 mm Hg
- reduction in mean arterial blood pressure (MABP) ([3]; 60 mg/kg/day): 35 mm Hg
- reduction in collagen I immunostaining [4]: 47%
- necrosis in tumors (HSTS26T tumors [5]): two-fold increase
- necrosis in tumors (Mu89 tumors [6]): two-fold increase
- mean tumor weight ([7]; agent alone (losartan 20 mg/kg/day or DOXIL 4 mg/kg i.v.), after 7 days): did not affect
- tumor size vs DOXIL alone ([7]; losartan 20 mg/kg/day combined with DOXIL 4 mg/kg i.v.): significantly smaller
- growth of pancreatic tumors or weight of treated mice ([7]; losartan alone): did not affect
- reduction of tumor sizes compared to DOXIL treatment alone ([7]; losartan combined with DOXIL): 50%
- positive Ki67 staining (HSTS26T tumors [8]): no statistically significant difference
- positive Ki67 staining (Mu89 tumors [9]): no statistically significant difference
